{"source": "patent US20100099756A1", "about": "“USES OF INCENSOLE, INCENSOLE ACETATE AND DERIVATIVES THEREOF” (YISSUM RESEARCH DEVELOPMENT COMPANY OF THE HEBREW …, priority 2006, published 2010)", "assay_type_in_all_cases": "cell-based", "key": {"rat-TRPV2": {"target": "T1, rat-TRPV2 (Rattus norvegicus, UniProt Q9WUD2)", "T1 construct": "expressed in transfected cells; host or cells: HEK293 (transient, lipofectamine)", "T1 sequence (Q9WUD2 whole entry)": "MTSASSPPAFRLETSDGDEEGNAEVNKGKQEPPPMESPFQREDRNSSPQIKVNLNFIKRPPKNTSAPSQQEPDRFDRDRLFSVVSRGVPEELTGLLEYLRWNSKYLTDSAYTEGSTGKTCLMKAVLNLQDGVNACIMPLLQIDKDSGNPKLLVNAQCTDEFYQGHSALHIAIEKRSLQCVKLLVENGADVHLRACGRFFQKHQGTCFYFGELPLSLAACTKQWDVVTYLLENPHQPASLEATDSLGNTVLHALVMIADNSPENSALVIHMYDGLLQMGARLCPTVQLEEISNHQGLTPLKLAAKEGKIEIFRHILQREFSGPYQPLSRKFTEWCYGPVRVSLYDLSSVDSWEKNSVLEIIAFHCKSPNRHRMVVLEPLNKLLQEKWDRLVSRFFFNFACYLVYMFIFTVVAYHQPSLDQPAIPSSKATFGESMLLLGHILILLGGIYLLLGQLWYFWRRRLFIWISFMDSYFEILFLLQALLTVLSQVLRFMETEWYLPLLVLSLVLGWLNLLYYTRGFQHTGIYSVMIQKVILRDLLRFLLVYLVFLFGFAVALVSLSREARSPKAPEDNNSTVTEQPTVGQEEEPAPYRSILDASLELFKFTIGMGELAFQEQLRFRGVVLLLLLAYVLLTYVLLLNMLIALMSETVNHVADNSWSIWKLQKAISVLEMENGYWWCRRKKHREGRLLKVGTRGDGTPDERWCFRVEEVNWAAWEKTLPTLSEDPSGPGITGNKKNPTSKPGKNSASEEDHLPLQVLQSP", "assay": "Calcium imaging of HEK293 cells transiently transfected with rat-TRPV2", "conditions": "IA 100 μM", "text": "(§1) All error bars indicate SEM; p values in all subfigures but c represent analysis with one-way ANOVA Bonferroni's post hoc.\n(§2) HEK293 cells were transiently transfected with a rat TRPV2 plasmid using lipofectamine reagent (Invitrogen, Carlsbad, Calif.) according to manufacturer's protocol. They were then maintained in Dulbecco's modified Eagle Medium/10% fetal calf serum supplemented with Penicillin, Streptomycin, and L-glutamine. Primary keratinocytes from TRPV3-deficient and TRPV3+/+ mouse pups (day 1-4) were harvested and cultured as described previously [Chung, M. K., Lee, H., Mizuno, A., Suzuki, M. & Caterina, M. J. TRPV3 and TRPV4 mediate warmth-evoked currents in primary mouse keratinocytes. J. Biol. Chem. 279, 21569-21575 (2004)].\n(§3) For single cell calcium imaging, HEK293-rat TRPV2 and HEK293-mouse TRPV3-YFP expressing cells were plated on collagen-coated glass cover slips. Cells were loaded for 60 min with 3 μM Fura-2 AM."}, "mouse TRPV3-YFP [1]": {"test_system": "mouse TRPV3-YFP", "assay": "Whole-cell voltage-clamp, TRPV3-YFP expressing HEK293 cells", "conditions": "IA 200 μM; 2-APB 100 μM; cells not expressing TRPV3", "description": "(§4) Electrophysiological recording. Currents were recorded using whole-cell voltage-clamp. Pipettes were pulled from microcapillary glass (A-M Systems). A coverslip containing cells was transferred to a 300 μL chamber that was constantly perfused (1-2 mL/min) with external solution. Voltage protocols were generated and data were digitized and recorded using Pulse (HEKA Elektronik) software in conjunction with an Axopatch 200A amplifier (Axon Instruments), and the data analyzed using an in-house Visual Basic (Microsoft) analysis program.\n(§5) The external solution contained (in mM): 120 NaCl, 5 KCl, 1 MgCl2, 2 CaCl2, 10 Glucose and 20 HEPES, pH 7.4 with NaOH. The measured charge (pC) was defined as the charge elicited between -85 and -45 mV by a ramping voltage stimulus (−85 mV to +35 mV, 0.54 mV/msec; holding potential -55 mV). Currents were sampled at 5 kHz. Experimental and control cells were alternated whenever possible. Control values were obtained from adjacent cells with no detectable YFP fluorescence, presumed to be non-TRPV3-expressing."}, "mouse TRPV3-YFP [2]": {"target": "T2, mouse TRPV3-YFP (Mus musculus, UniProt Q8K424)", "T2 construct": "expressed in transfected cells", "T2 sequence (Q8K424 1-791)": "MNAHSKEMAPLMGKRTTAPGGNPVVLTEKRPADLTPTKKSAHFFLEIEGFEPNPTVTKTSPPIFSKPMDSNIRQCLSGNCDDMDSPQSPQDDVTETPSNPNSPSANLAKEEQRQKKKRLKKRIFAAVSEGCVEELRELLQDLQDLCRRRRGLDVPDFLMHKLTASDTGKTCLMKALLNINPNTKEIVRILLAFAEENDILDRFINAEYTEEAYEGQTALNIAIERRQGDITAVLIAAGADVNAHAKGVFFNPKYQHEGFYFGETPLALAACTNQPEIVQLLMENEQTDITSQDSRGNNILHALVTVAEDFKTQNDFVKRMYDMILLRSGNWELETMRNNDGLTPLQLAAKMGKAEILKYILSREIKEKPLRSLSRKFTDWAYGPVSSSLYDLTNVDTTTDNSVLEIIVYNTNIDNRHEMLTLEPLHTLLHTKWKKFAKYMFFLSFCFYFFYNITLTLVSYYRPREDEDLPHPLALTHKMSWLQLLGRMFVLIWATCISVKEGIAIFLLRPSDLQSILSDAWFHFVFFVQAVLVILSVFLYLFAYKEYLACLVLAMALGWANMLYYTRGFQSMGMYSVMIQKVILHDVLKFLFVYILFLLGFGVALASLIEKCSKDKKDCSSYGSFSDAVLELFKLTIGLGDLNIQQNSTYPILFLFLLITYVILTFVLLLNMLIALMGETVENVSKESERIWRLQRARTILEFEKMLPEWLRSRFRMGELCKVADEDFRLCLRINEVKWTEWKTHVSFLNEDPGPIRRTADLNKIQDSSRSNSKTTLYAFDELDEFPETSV", "assay": "Whole-cell voltage-clamp, TRPV3-YFP expressing HEK293 cells", "conditions": "IA 200 μM; 2-APB 100 μM; charge −85 to −45 mV", "description": "as §4, §5"}, "mouse TRPV3-YFP [3]": {"target": "T2, mouse TRPV3-YFP", "assay": "Calcium imaging of HEK293 cells expressing mouse TRPV3-YFP", "conditions": "IA 100 μM; 2-APB positive control", "description": "as §1\nTRPV3-YFP [O'dell, D. K., Rimmerman, N., Pickens, S. R. & Walker J. M. Fatty acyl amides of endogenous tetrahydroisoquinolines are active at the recombinant human TRPV1 receptor. […] Med. Chem. 15, 6164-6169 (2007)], TRPV4 and mock-transfected cell lines were cultured in DMEM 1× with L-glutamine (Mediatech, Inc. Herndon, Va.), containing 1% penicillin-streptomycin (Invitrogen, Carlsbad, Calif.) and 10% foetal bovine serum.\n(§6) Calcium imaging of HEK 293 cells. TRPV1, TRPV3, and TRPV4 expressing HEK293 cells were plated 24-48 h before imaging in 96 well plates, loaded with 3 μM Fura-2 AM and imaged as previously described [O'dell, D. K., Rimmerman, N., Pickens, S. R. & Walker J. M. Fatty acyl amides of endogenous tetrahydroisoquinolines are active at the recombinant human TRPV1 receptor. […] Med. Chem. 15, 6164-6169 (2007)].\nas §3\nData analysis of calcium imaging data. Analysis of calcium imaging data was done using a non-linear regression curve fit (Graphpad 4 Prism, San Diego, Calif.). t tests and one way ANOVA were calculated using SPSS (Chicago, Ill.). In the keratinocyte experiments, drug-induced response for each cell was taken as the maximal post-drug measurements over time minus the average of the last 5 pre-drug measurements. Averaged drug responses over 30 randomly selected cells per coverslip were analyzed with two-tailed unpaired t tests."}, "rat TRPV4": {"target": "T3, rat TRPV4 (Rattus norvegicus, UniProt Q9ERZ8)", "T3 construct": "expressed in transfected cells; host or cells: HEK293 cell line", "T3 sequence (Q9ERZ8 whole entry)": "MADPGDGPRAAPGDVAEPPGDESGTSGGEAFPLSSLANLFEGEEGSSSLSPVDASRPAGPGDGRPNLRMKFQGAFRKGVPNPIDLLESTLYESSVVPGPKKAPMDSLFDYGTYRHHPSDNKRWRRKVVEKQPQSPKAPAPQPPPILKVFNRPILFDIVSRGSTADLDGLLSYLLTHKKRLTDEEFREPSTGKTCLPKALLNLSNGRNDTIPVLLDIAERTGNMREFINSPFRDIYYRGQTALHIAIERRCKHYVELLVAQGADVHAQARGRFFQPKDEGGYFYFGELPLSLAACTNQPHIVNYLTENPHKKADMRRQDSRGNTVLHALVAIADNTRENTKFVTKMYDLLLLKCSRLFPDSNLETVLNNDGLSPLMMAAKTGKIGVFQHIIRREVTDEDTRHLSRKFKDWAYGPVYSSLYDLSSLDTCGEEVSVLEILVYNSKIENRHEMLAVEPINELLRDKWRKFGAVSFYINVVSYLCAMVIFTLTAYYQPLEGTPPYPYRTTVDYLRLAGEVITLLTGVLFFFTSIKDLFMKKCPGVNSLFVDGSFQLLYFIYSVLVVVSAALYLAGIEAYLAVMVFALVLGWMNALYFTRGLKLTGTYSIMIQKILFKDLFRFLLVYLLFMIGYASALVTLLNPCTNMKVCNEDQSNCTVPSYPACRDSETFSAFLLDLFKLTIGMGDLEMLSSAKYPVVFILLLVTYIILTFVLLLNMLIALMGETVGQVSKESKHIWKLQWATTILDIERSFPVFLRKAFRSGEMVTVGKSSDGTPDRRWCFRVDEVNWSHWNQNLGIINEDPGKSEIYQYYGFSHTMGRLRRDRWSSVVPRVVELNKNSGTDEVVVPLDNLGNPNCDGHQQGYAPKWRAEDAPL", "assay": "Calcium imaging of TRPV4 transfected HEK293 cells", "conditions": "IA 100 μM, compared to vehicle", "description": "as §1\nTRPV3-YFP [O'dell, D. K., Rimmerman, N., Pickens, S. R. & Walker J. M. Fatty acyl amides of endogenous tetrahydroisoquinolines are active at the recombinant human TRPV1 receptor. Bioorg. Med. Chem. 15, 6164-6169 (2007)], TRPV4 and mock-transfected cell lines were cultured in DMEM 1× with L-glutamine (Mediatech, Inc. Herndon, Va.), containing 1% penicillin-streptomycin (Invitrogen, Carlsbad, Calif.) and 10% foetal bovine serum.\nCalcium imaging of HEK 293 cells. TRPV1, TRPV3, and TRPV4 expressing HEK293 cells were plated 24-48 h before imaging in 96 well plates, loaded with 3 μM Fura-2 AM and imaged as previously described [O'dell, D. K., Rimmerman, N., Pickens, S. R. & Walker J. M. Fatty acyl amides of endogenous tetrahydroisoquinolines are active at the recombinant human TRPV1 receptor. Bioorg. Med. Chem. 15, 6164-6169 (2007)]."}, "TRPV3": {"target": "T4, TRPV3 (Mus musculus, UniProt Q8K424)", "T4 sequence (Q8K424 1-791)": "T2 sequence (Q8K424 1-791)", "assay": "Calcium imaging of TRPV3+/+ and TRPV3−/− primary keratinocytes", "parameters": "endogenous in cells; host or cells: primary keratinocytes from TRPV3+/+ mouse pups (day 1-4); TRPV3-/- cells as control", "conditions": "IA 500 μM; camphor 10 mM", "text": "as §2\nCalcium imaging of TRPV3^+/+ and TRPV3^−/− keratinocytes. Primary keratinocytes from TRPV3-deficient and WT mouse pups (day 1-4) were harvested and cultured as described [Chung, M. K., Lee, H., Mizuno, A., Suzuki, M. & Caterina, M. J. TRPV3 and TRPV4 mediate warmth-evoked currents in primary mouse keratinocytes. J. Biol. Chem. 279, 21569-21575 (2004)].\nCells were plated on glass coverslips (10^5/cm^2) and incubated for 48-60 h, then loaded with fura-2 AM (20 μM, 0.04% pleuronic acid, 32° C. for 1 h) in imaging buffer containing (in mM): 130 NaCl, 2.5 CaCl2, 0.6 MgCl2, 10 HEPES, 1.2 NaHCO3, 10 glucose, pH 7.45. Ratiometric Ca^2+ imaging was performed as previously described [O'dell, D. K., Rimmerman, N., Pickens, S. R. & Walker J. M. Fatty acyl amides of endogenous tetrahydroisoquinolines are active at the recombinant human TRPV1 receptor. Bioorg. Med. Chem. 15, 6164-6169 (2007)]. Drug was added to the bath following a period of baseline recording. Calcium measurements were made from 30 randomly selected cells per coverslip.\nData analysis of calcium imaging data. Analysis of calcium imaging data was done using a non-linear regression curve fit (Graphpad 4 Prism, San Diego, Calif.). t tests and one way ANOVA were calculated using SPSS (Chicago, Ill.). […] Averaged drug responses over 30 randomly selected cells per coverslip were analyzed with two-tailed unpaired t tests."}, "TRPV1": {"target": "TRPV1 (Homo sapiens, UniProt Q8NER1)", "sequence (Q8NER1 whole entry)": "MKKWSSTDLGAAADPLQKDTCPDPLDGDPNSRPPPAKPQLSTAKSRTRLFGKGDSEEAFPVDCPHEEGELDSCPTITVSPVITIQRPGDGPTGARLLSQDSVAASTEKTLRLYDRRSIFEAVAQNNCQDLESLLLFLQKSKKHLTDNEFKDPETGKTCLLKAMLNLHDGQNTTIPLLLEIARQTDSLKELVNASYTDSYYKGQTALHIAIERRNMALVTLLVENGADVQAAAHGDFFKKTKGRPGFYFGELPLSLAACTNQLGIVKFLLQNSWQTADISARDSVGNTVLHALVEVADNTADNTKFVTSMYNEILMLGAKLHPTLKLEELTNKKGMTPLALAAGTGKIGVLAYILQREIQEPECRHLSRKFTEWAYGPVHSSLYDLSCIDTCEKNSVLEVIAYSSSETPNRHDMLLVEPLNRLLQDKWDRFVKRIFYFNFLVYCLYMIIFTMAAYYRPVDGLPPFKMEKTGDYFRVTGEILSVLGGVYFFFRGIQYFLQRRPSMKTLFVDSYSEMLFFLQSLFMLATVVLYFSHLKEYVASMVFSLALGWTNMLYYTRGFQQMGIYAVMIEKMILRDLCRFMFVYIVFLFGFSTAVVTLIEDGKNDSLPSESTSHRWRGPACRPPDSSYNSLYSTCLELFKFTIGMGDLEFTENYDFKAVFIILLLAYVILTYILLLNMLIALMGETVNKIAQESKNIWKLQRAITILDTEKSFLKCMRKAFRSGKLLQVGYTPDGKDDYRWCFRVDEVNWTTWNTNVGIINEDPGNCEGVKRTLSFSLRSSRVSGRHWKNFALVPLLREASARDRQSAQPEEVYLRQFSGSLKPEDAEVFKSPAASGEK", "assay": "Calcium imaging of TRPV1-transfected HEK293 cells", "conditions": "IA 100 μM, compared to vehicle", "description": "as §1\nHuman HEK 293 cells stably expressing TRPV1 were a kind gift from Merck Research Laboratories (Whitehouse Station, N.J.). Cells were cultured in minimal essential medium, Eagle, modified with non-essential amino acids, 1 mM sodium pyruvate, 2 mM L-glutamine and 1.5 g/L sodium bicarbonate (ATCC, Mabassas, Va.), containing 1% Penicillin-streptomycin, and 10% foetal bovine serum. Cells were passaged three times a week using Trypsin-EDTA 1× (Invitrogen, Carlsbad, Calif.) and grown under 5% CO2 at 37° C.\nas §6"}, "IκBα degradation": {"test_system": "IκBα degradation", "assay": "IκBα degradation in TNFα-stimulated HeLa cells (Western blot)", "conditions": "HeLa cells pre-incubated 2 hrs, then TNFα 20 ng/ml for 20 minutes", "description": "HeLa cells were pre-incubated with IA (FIG. 1A) or IN (FIG. 1B) at the indicated concentrations for 2 hrs prior to 20 minutes exposure to TNFα (20 ng/ml). At least three more experiments were repeated with highest indicated dose, resulting similarly.\nIκBα Degradation. HeLa cells were pre-incubated with IA (50 μg/ml, dissolved in ethanol) for 2 hrs, and then stimulated for 20 minutes with TNFα (20 ng/ml, Emeryville, Calif., USA). After removing the slides from plates for immonostaining (see below), proteins were extracted from remaining cells in the plates. Proteins were extracted from cells in NP-40 lysis buffer. Total protein concentration was determined using the Bradford method. Lysates were then analyzed either by Western blotting (WB).\nWestern Blot (WB). Following separation by SDS-PAGE, proteins were blotted to a polyvinylidene difluoride (PVDF) membrane (Millipore). The membrane was blocked in 5% (w/v) milk powder and then incubated in TBST containing the primary antibody and 2% (w/v) milk powder. All phospho-specific antibodies were purchased from Cell signaling Inc. αIκBa, αp65 and αCOX2 antibodies from Santa Cruz Inc. (California, USA). After binding of an appropriate secondary antibody coupled to horseradish peroxidase, proteins were visualized by enhanced chemiluminiscence according to the instructions of the manufacturer (Amersham Lifescience)."}}}
{"compound": "NCCOB(c1ccccc1)c1ccccc1", "note": "[2-APB, 2-aminoethyl diphenylborinate, reference compound]", "values": [{"measurement": "calcium influx in rat-TRPV2 transfected HEK293 cells", "setting": "rat-TRPV2", "result": "robustly increased calcium"}, {"measurement": "current activation in TRPV3(−) control cells", "setting": "mouse TRPV3-YFP [1]", "result": "not in TRPV3(−) cells"}, {"measurement": "current activation in TRPV3(+) HEK293 cells", "setting": "mouse TRPV3-YFP [2]", "result": "activates currents"}, {"measurement": "calcium influx vs vehicle", "setting": "mouse TRPV3-YFP [3]", "result": "evoked robust calcium increases"}]}
{"compound": "CCCCCCCCCC(=O)O[C@@H]1[C@@H](C)[C@@]2(O)[C@@H](C=C(CO)C[C@@]3(O)C(=O)C(C)=C[C@@H]23)[C@@H]2C(C)(C)[C@]12OC(=O)CCCCCCCCC", "note": "[4αPDD, reference compound]", "values": [{"measurement": "calcium influx in TRPV4 transfected HEK293 cells", "setting": "rat TRPV4", "result": "robust calcium increase"}]}
{"compound": "CC12CCC(CC1=O)C2(C)C", "note": "(centres unmarked) [Camphor, camphor, reference compound]", "values": [{"measurement": "calcium influx in primary keratinocytes from WT mice", "setting": "TRPV3", "result": "showed a similar effect"}]}
{"compound": "COc1cc(CNC(=O)CCCC/C=C/C(C)C)ccc1O", "note": "[Capsaicin, reference compound]", "values": [{"measurement": "calcium influx in TRPV1-transfected HEK293 cells", "setting": "TRPV1", "result": "robust calcium increase"}]}
{"compound": "C/C1=C\\CC2(C(C)C)CCC(C)(O2)C(O)CC/C(C)=C/CC1", "note": "(centres unmarked) [IN, incensole]", "values": [{"measurement": "IκBα degradation", "setting": "IκBα degradation", "result": "inhibited IκBα degradation in a dose dependent manner"}]}
